# “Also recorded” adds a separate entry of the source. Where two headings read alike, the source gives them in different places.
# How the values were obtained:
# ATM = ATM / DNA damage checkpoint dependence of VX-680-induced G2 arrest (western blot, DNA FACS profiles); assay type: cell-based
# Experimental: For western blotting, cell extracts were prepared using NP-40 lysis buffer (50 mM Tris-HCl (pH 8.0), 150 mM NaCl, 1% NP-40, 5 mM EDTA supplemented with protease and phosphatase inhibitor cocktails (Sigma).
# A549 cells [1] = test: Cell cycle / BrdU analysis of A549 cells pretreated with nutlin-3 before VX-680; assay type: cell-based
# Experimental: Cells were treated with 200 nM VX-680 for 24 h and incubated with […] BrdU for 30 min. […] BrdU-positive cells in untreated control sample (upper left panel) and BrdU-positive cells that are […] DNA (endoreduplicating cells) (upper right panel) are highlighted in the boxes and the percentages over the total cell population are indicated.
# (b) is a schematic diagram showing the timing and order of addition of drugs. At 48 h after VX-680 treatment, cells were washed in drug-free media and incubated in drug-free media for another 48, 96 or 120 h. Cell cycle distribution was analyzed by flow cytometry. Also shown are the DNA profiles obtained using the drug treatment protocol depicted in (a).
# Cells were incubated in DMEM containing […] BrdU for 30 min in a 37° C./5% CO2 incubator. Detection of BrdU-labeled cells was performed using the In Situ Cell Proliferation Kit from Roche. In brief, cells were harvested and fixed using a 70% ethanol/50 mM Glycine (pH 2.0) on ice. Cells were pelleted and resuspended in the HCl-denaturation solution at room temperature for 20 min. Cells were then pelleted and 50 μl anti-BrdU-FLUOS antibody was added to the cells and incubated for 45 min at 37° C. in a humidified chamber. For staining of total DNA, 7-AAD was added to the cells, followed by incubation at room temperature for 10 min. Cells were analyzed immediately using flow cytometry (BD LSR II System).
# HCT116 p53+/+ cells = test: Cell cycle analysis of HCT116 p53+/+ cells (nutlin-3, VX-680); assay type: cell-based; details: HCT116p53+/+
# Experimental: (a) is a comparison of the DNA profiles of P53+/+ and p53−/− cells after treatment with VX-680. HCT116 p53+/+ and p53−/− cells were incubated with 200 nM VX-680 and cells were harvested at the indicated time points for analysis of cell cycle distribution.
# (b) is a comparison of the DNA profiles of p53+/+ and p53−/− cells with pre-treatment of Nutlin before incubation with VX-680.
# A549 cells [2] = test: Colony survival assay, A549; assay type: cell-based; set-up: enhancement of the fraction of surviving colonies: dose or concentration left out as unconfirmed
# Experimental: (§1) Colonies were counted 2 weeks after recovery in drug-free media. Cells were fixed with glutaraldehyde and stained with crystal violet. Plates are scanned and colonies were counted with an automated image analyzer. Three independent experiments were performed for each cell line.
# (§2) Each data point represents the mean±S.D.
# (§3) A total of 1000 cells were plated on each 10 cm plate and allowed to adhere overnight. […] After 48 h, cells were washed and recovered in fresh media for 12 days. Cells were then fixed in 6% glutaraldehyde (Sigma) and stained with crystal violet. Colonies were counted using GelCount™ (Oxford Optronix, Oxford, England). Each condition was carried out in triplicate.
# HCT116p53+/+ cells = test: Colony survival assay, HCT116p53+/+; assay type: cell-based; details: pretreated with nutlin-3, versus VX-680 alone
# Experimental: as §1, §2, §3
# p53-deficient HCT116 = test: Colony survival assay, p53-deficient HCT116; assay type: cell-based; details: p53-deficient HCT116, nutlin-3 pretreatment before VX-680
# Experimental: as §1, §2, §3
# [3] = tested on: HCT116p53+/+ (green) and HCT116p53−/− (red) cells; test: Co-culture of HCT116p53+/+ GFP and HCT116p53−/− RFP cells; assay type: cell-based; details: mixed population pretreated with nutlin-3 then VX-680, 5 days after drugs removal
# From the text: (e) is a schematic illustration of fluorescent microscopy images of HCT116 p53+/+ and p53−/− cells that were transduced with recombinant lentiviruses carrying GFP and RFP genes, respectively. The cells were selected in zeocin for 2 weeks to achieve the stable cell lines, HCT116 p53+/+GFP and HCT116 p53−/− RFP. Equal numbers of HCT116 p53+/+GFP and p53−/− RFP were mixed and seeded to achieve 30% growth confluency. […] Cells were then washed twice with drug-free media and allowed to recover for 5 days in fresh complete media. Microscopy images were taken with Deltavision (Axio). […] Insets 1 and 2 show higher magnification of the images on the left.
# We further studied the responses of p53 wild-type and p53-deficient cells in co-culture system, in which both cell types were cultured together for the duration of the experiment. HCT116p53+/+ and the HCT116p53−/− cells were distinguished using green fluorescent protein (GFP) and red fluorescent protein (RFP) fluorescent markers. Equal numbers of HCT116p53+/+ (green) and HCT116p53−/− (red) cells were mixed and plated in 10 cm plates, before exposure to a similar drug dosage regimen as described in FIG. 6c.
# [4] = tested on: MDA-MB 468 and HCT116 p53−/−; test: Annexin V apoptosis assay, p53-compromised cell lines; assay type: cell-based; details: p53-compromised cells pretreated with nutlin-3 before VX-680
# Experimental: Cells were then harvested and stained for annexin V to detect apoptotic cells.
# For analysis of apoptosis, cells were harvested without fixation. Apoptosis was evaluated using the annexin V (fluorescein isothiocyanate (FITC))-propidium iodide binding assay (Roche, Indianapolis, Ind., USA). The extent of apoptosis was quantified as a percentage of annexin V-positive cells over the total cell population. Flow cytometric analysis was performed on a BD LSR II System (BD Biosciences, Stockholm, Sweden). Data were analyzed using FlowJo software and ModFit LT (Verity Software House, Topsham, Me., USA).
# A549 cells [5] = test: Micronuclei formation and γH2AX staining (immunofluorescence microscopy) in A549 cells; assay type: cell-based; details: A549; nutlin-3 only, or nutlin-3 16 h before VX-680 48 h
# Experimental: Cells were fixed and stained for γH2AX (green) as described in Materials and Methods in the Examples. Nuclei were counterstained with DAPI blue. Visualization of nuclei and γH2AX positive foci was done by fluorescence microscopy.
# Indirect immunofluorescence was carried out as described previously.^14 g-H2AX (Novus Biologicals, Littleton, Colo., USA, NB 100-383) and anti-rabbit Alexa 488-coupled secondary antibody (Molecular Probes, Carlsbad, Calif., USA) were used. Nuclei were counterstained with Hoechst 33342 (Molecular Probes). Immunofluorescence was visualized using Axiolmager Z1 (Zeiss, Gottingen, Germany).
# human keratinocytes = details: for tetraploidy / endoreduplication after nutlin pretreatment: keratinocytes pretreated with nutlin-3 16 h, then VX-680 (200 nM) 48 h
# Experimental: Primary human keratinocytes were purchased from Invitrogen and cultured in defined keratinocyte serum-free media (Invitrogen). All cell lines were cultured in a CO2 incubator (5% CO2 and 21% O2) at 37° C.
# For analysis of cell cycle distribution, cells were harvested and fixed in 70% ethanol/PBS solution. Cells were stained in propidium-iodide containing solution (25 μg/ml propidium iodide supplemented with 1 mg/ml RNase A, in PBS (pH 7.8); Sigma Chemical, St Louis, Mo., USA) for 15 min at room temperature.
smiles,measurement,setting,value
O=c1cc(-c2cccc3c2Sc2ccccc2S3)oc(N2CCOCC2)c1 [KU55933],γH2AX and ATM-S1981 phosphorylation in response to doxorubicin,ATM; KU55933 with 1 μM doxorubicin,abrogates the observed phosphorylation in a dose-dependent manner; also recorded: clearly reduced
same,effect on VX-680-induced G2 arrest,ATM; pre-treatment with KU55933 before VX-680,does not abrogate
COc1cccc2c1C(=O)c1c(O)c3c(c(O)c1C2=O)C[C@@](O)(C(=O)CO)C[C@@H]3O[C@H]1C[C@H](N)[C@H](O)[C@H](C)O1 [doxorubicin],"phospho-S1981 ATM, phospho-H2AX, phospho-S15 p53",ATM; 1 μM doxorubicin,accumulation
COc1ccc(C2=N[C@@H](c3ccc(Cl)cc3)[C@@H](c3ccc(Cl)cc3)N2C(=O)N2CCNC(=O)C2)c(OC(C)C)c1 [nutlin-3],cell cycle arrest of nutlin-3-pretreated cells,"A549 cells [1]; A549, nutlin-3 (5 µM) before VX-680 treatment, 48 h VX-680, confirmed by BrdU assay",arrested cells even after 48 h of VX-680 exposure
same,cell cycle arrest of nutlin-3-pretreated cells,"A549 cells [1]; A549, nutlin-3 (5 μM) followed by VX-680 (200 nM)",remained arrested at G1
same,DNA profile after recovery in drug-free media,"A549 cells [1]; A549, nutlin-3 pretreatment then VX-680, recovered in drug-free media",normal diploid DNA profile
same,cell cycle arrest by nutlin,HCT116 p53+/+ cells,induced an arrest
same,protection from VX-680-induced endoreduplication by nutlin pretreatment,HCT116 p53+/+ cells; nutlin-3 16 h then VX-680 (200 nM) and nutlin-3 48 h,protects
same,enhancement of the fraction of surviving colonies,"A549 cells [2]; A549, pretreated with for 16 h before VX-680 48 h, versus VX-680 alone",up to 20 fold
same,number of surviving colonies,A549 cells [2]; nutlin alone,moderately decreases
same,better survival (colony formation),HCT116p53+/+ cells,up to 15 fold
same,colony survival rate,p53-deficient HCT116,did not affect
same,number of HCT116p53+/+ (green) cells versus HCT116p53−/− (red) cells,[3],far more than
same,degree of apoptosis with nutlin-3 pretreatment,[4],no significant difference
same,frequency of micronuclei and γH2AX staining,A549 cells [5],low frequency
same,cellular viability,human keratinocytes,high cellular viability
same,tetraploidy / endoreduplication after nutlin pretreatment,human keratinocytes; listed as Nutlin,did not show significant tetraploidy
same,tetraploidy / endoreduplication after nutlin pretreatment,human keratinocytes; listed as Nutlin-3,protects primary human keratinocytes from endoreduplication

# — patent US20130344140A1, “NOVEL PHARMACEUTICAL COMBINATIONS AND METHODS FOR TREATING CANCER” (Agency for Science, Technology and Research, priority 2011, published 2013)
